PubChem BioAssay (NCI)
“And” between values parts separate entries of the source, which are not always exact repeats. Identical values can stand only once.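 Values below derive from 48-hour exposures of cells grown in 96-well plates, with endpoints linearly interpolated between the two concentrations bracketing the appropriate inhibition level. The concentration for 50% growth inhibition is given as GI50. TGI: concentration producing complete growth inhibition.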

Columns and labels:
Experiment in all cases: NCI tumour cell line growth inhibition, 48 h
DLD-1 colon = test system: DLD-1 colon
DMS 114 small cell lung = test system: DMS 114 small cell lung
DMS 273 small cell lung = test system: DMS 273 small cell lung
HOP-18 NSCLC = test system: HOP-18 NSCLC
KM20L2 colon = test system: KM20L2 colon
LXFL 529 NSCLC = test system: LXFL 529 NSCLC
MOLT-4 leukemia = test system: MOLT-4 leukemia
NCI-H23 lung = test system: NCI-H23 lung
SNB-78 CNS = test system: SNB-78 CNS
SW-620 colon = test system: SW-620 colon
TK-10 renal = test system: TK-10 renal
XF 498 CNS = test system: XF 498 CNS
M19-MEL melanoma = test system: M19-MEL melanoma
RXF-631 renal = test system: RXF-631 renal
MDA-MB-435 = test system: MDA-MB-435
P388/ADR leukemia = test system: P388/ADR leukemia
SN12K1 renal = test system: SN12K1 renal

`CCCCCC/C=C1\CCC(CN2CCOCC2)C1=O` (configuration not stated) was tested, and the TGI (DLD-1 colon) was 27.4 µM, the TGI (DMS 114 small cell lung) was 33.2 µM and the TGI (DMS 273 small cell lung) was 32.5 µM. It also gave a TGI (HOP-18 NSCLC) of 20 µM, a TGI (KM20L2 colon) of 37 µM and a TGI (LXFL 529 NSCLC) of 11.1 µM. The TGI (MOLT-4 leukemia) was 18.1 µM, the TGI (NCI-H23 lung) was 31.7 µM and the TGI (SNB-78 CNS) was 50.6 µM. The TGI (SW-620 colon) was 26.7 µM, the TGI (TK-10 renal) was 26.4 µM and the TGI (XF 498 CNS) was 29.9 µM.

With `CC(=O)OC1COC(N2C(=O)C(=O)c3cc(Br)ccc32)C(OC(C)=O)C1OC(C)=O` (configuration not stated) the TGI (DLD-1 colon) was > 100 µM, the TGI (DMS 114 small cell lung) was > 100 µM and the TGI (DMS 273 small cell lung) was > 100 µM. The TGI (HOP-18 NSCLC) was > 100 µM, the TGI (KM20L2 colon) was > 100 µM and the TGI (LXFL 529 NSCLC) was > 100 µM. For the same molecule, the TGI (M19-MEL melanoma) was > 100 µM, the TGI (MOLT-4 leukemia) was > 100 µM and the TGI (NCI-H23 lung) was > 100 µM. For the same molecule, the TGI (RXF-631 renal) was > 100 µM, the TGI (SNB-78 CNS) was > 100 µM and the TGI (SW-620 colon) was > 100 µM. For the same molecule, the TGI (TK-10 renal) was > 100 µM and the TGI (XF 498 CNS) was > 100 µM.

`Cc1c2ccncc2c(C)c2c1[nH]c1ccc(OCC(F)(F)F)cc12` showed a TGI (DLD-1 colon) of 3.32 µM, a TGI (DMS 273 small cell lung) of 2.17 µM and a TGI (KM20L2 colon) of 2.78 µM. For the same molecule, the TGI (LXFL 529 NSCLC) was 2.43 µM, the TGI (M19-MEL melanoma) was 3.49 µM and the TGI (MOLT-4 leukemia) was 3.26 µM. The TGI (NCI-H23 lung) was 3.14 µM, the TGI (SNB-78 CNS) was 5.47 µM and the TGI (SW-620 colon) was 1.99 µM. For the same molecule, the TGI (TK-10 renal) was 3.58 µM and the TGI (XF 498 CNS) was 3.07 µM.

With `CC(C)(C)C1=CC(=C2C(=O)C(=O)c3ccccc3C2=O)C=C(C(C)(C)C)C1=O` the TGI (DLD-1 colon) was > 100 µM, the TGI (DMS 114 small cell lung) was 66.2 µM and the TGI (DMS 273 small cell lung) was > 100 µM. For the same molecule, the TGI (HOP-18 NSCLC) was > 100 µM, the TGI (KM20L2 colon) was > 100 µM and the TGI (LXFL 529 NSCLC) was > 100 µM. For the same molecule, the TGI (M19-MEL melanoma) was > 100 µM, the TGI (NCI-H23 lung) was > 100 µM and the TGI (SNB-78 CNS) was > 100 µM. The TGI (SW-620 colon) was > 100 µM and the TGI (TK-10 renal) was > 100 µM.

`C=C[C@]1(C)CCC2=C(CCC3C2(C)CCC[C@@]3(C)COC(C)=O)C1` (some centres not stated) was tested, and the TGI (DLD-1 colon) was 34.7 µM, the TGI (DMS 114 small cell lung) was 37.4 µM and the TGI (HOP-18 NSCLC) was 70.1 µM. For the same molecule, the TGI (KM20L2 colon) was 33.5 µM, the TGI (LXFL 529 NSCLC) was 32.5 µM and the TGI (M19-MEL melanoma) was 50.8 µM. The TGI (MOLT-4 leukemia) was 30.3 µM, the TGI (NCI-H23 lung) was 43.3 µM and the TGI (RXF-631 renal) was 38.1 µM. For the same molecule, the TGI (SNB-78 CNS) was 36.4 µM, the TGI (SW-620 colon) was 35.5 µM and the TGI (TK-10 renal) was 59 µM. For the same molecule, the TGI (XF 498 CNS) was 34.4 µM.

In the case of `Nc1cc(=O)n(-c2ccccc2)c(=S)n1-c1ccccc1`, the TGI (DLD-1 colon) is reported as > 100 µM, the TGI (DMS 114 small cell lung) is reported as > 100 µM and the TGI (DMS 273 small cell lung) is reported as > 100 µM. For the same molecule, the TGI (KM20L2 colon) was > 100 µM, the TGI (LXFL 529 NSCLC) was > 100 µM and the TGI (M19-MEL melanoma) was > 100 µM. For the same molecule, the TGI (MOLT-4 leukemia) was > 100 µM, the TGI (SNB-78 CNS) was > 100 µM and the TGI (SW-620 colon) was > 100 µM. The TGI (TK-10 renal) was > 100 µM and the TGI (XF 498 CNS) was > 100 µM.

Molecule `CN1CCN(c2ccc3nc(-c4ccc5nc(-c6ccc(O)cc6)[nH]c5c4)[nH]c3c2)CC1` has a TGI (DLD-1 colon) of 487 µM, a TGI (DMS 114 small cell lung) of 483 µM and a TGI (DMS 273 small cell lung) of 158 µM. It also gave a TGI (HOP-18 NSCLC) of 556 µM, a TGI (KM20L2 colon) of 1160 µM and a TGI (M19-MEL melanoma) of 283 µM. For the same molecule, the GI50 (MDA-MB-435) was 41.7 µM, the TGI (MDA-MB-435) was 217 µM and the GI50 (MOLT-4 leukemia) was 37.2 µM and 39.4 µM. The TGI (MOLT-4 leukemia) was 482 µM, the TGI (NCI-H23 lung) was 531 µM and the TGI (P388/ADR leukemia) was 725 µM. It also gave a TGI (SN12K1 renal) of 552 µM, a TGI (SNB-78 CNS) of 638 µM and a TGI (SW-620 colon) of 959 µM. For the same molecule, the TGI (TK-10 renal) was 1300 µM and the TGI (XF 498 CNS) was 116 µM.

Molecule `CCN(CC)CCNc1ccc2nnn3c4ccc(O)cc4c(=O)c1c23` has a TGI (DLD-1 colon) of 17.5 µM, a TGI (DMS 114 small cell lung) of 22.1 µM and a TGI (HOP-18 NSCLC) of 42.7 µM. For the same molecule, the TGI (KM20L2 colon) was 17.6 µM, the TGI (LXFL 529 NSCLC) was 20.3 µM and the TGI (MDA-MB-435) was 17.4 µM. The TGI (MOLT-4 leukemia) was 4.76 µM, the TGI (NCI-H23 lung) was 19.7 µM and the TGI (SNB-78 CNS) was 21.1 µM. For the same molecule, the TGI (SW-620 colon) was 15.6 µM and the TGI (TK-10 renal) was 18.9 µM.

With `CC(=O)C1=C(C)N(c2ccc(C)cc2)C2(O)C3=C(C(=O)c4ccccc4C3=O)C(O)=CC12Cl` (configuration not stated) the TGI (MDA-MB-435) was 14.3 µM, the TGI (MOLT-4 leukemia) was > 100 µM and the TGI (NCI-H23 lung) was 34 µM. For the same molecule, the TGI (SW-620 colon) was > 100 µM and the TGI (TK-10 renal) was 97 µM.

In the case of `C1CC[C@H]2SSC3CCCC[C@H]3SSC2C1` (some centres not stated), the TGI (MDA-MB-435) is reported as > 100 µM, the TGI (MOLT-4 leukemia) is reported as > 100 µM and the TGI (NCI-H23 lung) is reported as > 100 µM. For the same molecule, the TGI (SW-620 colon) was > 100 µM and the TGI (TK-10 renal) was > 100 µM.

With `CCOc1cc2oc(C)cc(=O)c2c(OC)c1C=Nc1ccc(Cn2c(C)nc3ccccc32)cc1` the TGI (MDA-MB-435) was > 100 µM, the TGI (MOLT-4 leukemia) was > 100 µM and the TGI (NCI-H23 lung) was > 100 µM. For the same molecule, the TGI (SW-620 colon) was > 100 µM and the TGI (TK-10 renal) was > 100 µM.

`COc1cc(C2C(Cl)C(=O)N2NC(=O)c2ccc(N)cc2)cc(Br)c1O` (configuration not stated) showed a TGI (DLD-1 colon) of 40.2 µM, a TGI (DMS 114 small cell lung) of 21.8 µM and a TGI (DMS 273 small cell lung) of 31.9 µM. For the same molecule, the TGI (KM20L2 colon) was 33.6 µM, the TGI (LXFL 529 NSCLC) was 11.3 µM and the TGI (M19-MEL melanoma) was 32 µM. It also gave a TGI (MOLT-4 leukemia) of 20 µM, a TGI (NCI-H23 lung) of 35.1 µM and a TGI (SNB-78 CNS) of 43.9 µM. The TGI (SW-620 colon) was 35.1 µM, the TGI (TK-10 renal) was 32.5 µM and the TGI (XF 498 CNS) was 30.7 µM.

In the case of `COC(=O)[C@H](CC(C)C)Nc1c(O)c2c(c(O)c1Cl)C(=O)C=CC2=O`, the TGI (MDA-MB-435) is reported as > 10 µM, the TGI (MOLT-4 leukemia) is reported as > 10 µM and the TGI (NCI-H23 lung) is reported as > 10 µM. For the same molecule, the TGI (SW-620 colon) was > 10 µM and the TGI (TK-10 renal) was > 10 µM.

`CC(=O)OC12c3ccccc3-c3ccccc3C1C1C(=O)OC(=O)C12` (configuration not stated) was tested, and the TGI (MDA-MB-435) was > 10 µM, the TGI (MOLT-4 leukemia) was > 10 µM and the TGI (NCI-H23 lung) was > 10 µM. The TGI (SW-620 colon) was > 10 µM and the TGI (TK-10 renal) was > 10 µM.

`COc1ccc(/C=C2\CCC/C(=C\c3ccc(O)c(CN4CCCCC4)c3)C2=O)cc1` gave a TGI (MDA-MB-435) of 39.6 µM, a TGI (MOLT-4 leukemia) of 40.7 µM and a TGI (NCI-H23 lung) of 41.3 µM. For the same molecule, the TGI (SW-620 colon) was 28.8 µM and the TGI (TK-10 renal) was 52.1 µM.
